# Entries after “also recorded” stand apart in the source; their conditions may differ.
# Experiments:
# [1] = system: HFL1; test: Combination with genotoxic agents, cell viability (Mixtures Blend); format: cell-based, human
# Experimental: (§1) The cell-based experiments and assays were performed with either molecule but not always with both. Compounds (1) and (2) were generally very similar in those assays and experiments. Analysis of the combination experiments was performed using two methods: the Bliss Additivity model and the Mixtures Blend method to determine the degree of synergy, additivity, or antagonism. In the Bliss method, a matrix of Bliss scores was generated for each cell line and treatment, and a sum of the Bliss values over the range of combination concentrations tested was calculated. […] Larger average Bliss values indicate greater confidence in reporting synergy, and smaller scores indicate greater confidence in reporting antagonism. In the Mixtures Blend method combinants were added in a range of optimal ratios using design of experiment (DOE) software (DX-8 from STAT-EASE); the cells were irradiated with 2 Gy as required. Synergy was determined using statistical analysis of the data (ANOVA) to indicate linear (additivity) or statistically significant (p<0.1) non-linear (antagonism or synergy) mixes of the combinants. The following SOC agents were tested in double combinations with Compound (1): etoposide (a topoisomerase inhibitor that induces DSBs), cisplatin (DNA cross-linker), carboplatin (DNA cross-linker), fluorouracil (5-FU, antimetabolite that inhibits thymidylate synthase), paclitaxel (mitotic inhibitor that binds to tubulin), cetuximab (EGFR monoclonal antibody), and radiation. […] These findings were confirmed using the Bliss Additivity model (Table 21). […] While there is not total agreement in the various lines tested, (as detailed in the other sections) the majority agree and the conclusions arrived at are common to each. […] The cancer cell lines in Table 19 indicate: ESO26-gastroesophageal junction cancer, OE19-gastroesophageal junction cancer, […]549-lung cancer, colo205-colon cancer, H460-lung cancer, H2009-lung cancer, FaDu-pharynx cancer, Miapaca2-pancreatic cancer, HFL1-human fetal lung fibroblast.
# [2] = system: H460; test: as above; format: cell-based; set-up: key to Synergy or Antagonism, Plus Radiation (2 Gy): Plus = enhanced effect of radiation; *: Viability reduction driven predominantly by Compound (1) plus radiation; conditions: no agent ticked
# Experimental: as §1
# [3] = system: FaDu; test: as above; format: cell-based; set-up: key to Synergy or Antagonism, Plus Radiation (2 Gy): Plus = enhanced effect of radiation; *: Viability reduction driven predominantly by Compound (1) plus radiation
# Experimental: as §1
# [4] = system: H2009; test: as above; format: cell-based; set-up: key to Synergy or Antagonism, Plus Radiation (2 Gy): Plus = enhanced effect of radiation; *: Viability reduction driven predominantly by Compound (1) plus radiation; conditions: no agent ticked
# Experimental: as §1
# [5] = system: Colo205; test: as above; format: cell-based; conditions: with Cisplatin and 5-FU
# Experimental: as §1
# [6] = system: DMS-53; test: as above; format: cell-based; conditions: with Cisplatin and Etoposide
# Experimental: as §1
# [7] = system: OE19; test: as above; format: cell-based
# Experimental: as §1
# [8] = Blood exposure in ST-02-0004 study; format: in vivo
# Experimental: The anti-tumor activity of Compound (2) in combination with focused-beam IR and the standard of care agents, paclitaxel and carboplatin, was also evaluated in the ST 02 0004 model. Treatment with paclitaxel, carboplatin, and IR was administered once per week for three weeks alone or in combination with Compound (2). […] Further, the 50 and 25 mg/kg Compound (2), paclitaxel/carboplatin, IR combination groups were statistically different (P<0.05) from the paclitaxel/carboplatin, paclitaxel/carboplatin/50 mg/kg Compound (2), and paclitaxel/carboplatin/IR groups. Compound (2) blood exposures were 9.3 and 27 μg*h/mL for the 25 and 50 mg/kg Compound (2) bid groups, respectively.
# [9] = system: MDA-MB-436; test: Doxorubicin combination in triple negative breast cancer cells; format: cell-based; conditions: Compound (2) with doxorubicin, BRCA mutant
# Experimental: (§2) The cell-based experiments and assays were performed with either molecule but not always with both. Compounds (1) and (2) were generally very similar in those assays and experiments. Analysis of the combination experiments was performed using two methods: the Bliss Additivity model and the Mixtures Blend method to determine the degree of synergy, additivity, or antagonism. In the Bliss method, a matrix of Bliss scores was generated for each cell line and treatment, and a sum of the Bliss values over the range of combination concentrations tested was calculated. […] Larger average Bliss values indicate greater confidence in reporting synergy, and smaller scores indicate greater confidence in reporting antagonism. In the Mixtures Blend method combinants were added in a range of optimal ratios using design of experiment (DOE) software (DX-8 from STAT-EASE); the cells were irradiated with 2 Gy as required. Synergy was determined using statistical analysis of the data (ANOVA) to indicate linear (additivity) or statistically significant (p<0.1) non-linear (antagonism or synergy) mixes of the combinants.
# [10] = system: panel of 60 cancer cell lines; test: Double combinations in 60 cancer cell line panel (ATPLite, Bliss); format: cell-based; conditions: 144 hours
# Experimental: as §2, with “combinants. Compound (2) was tested against a panel of 60 cancer cell lines (see Table 16) alone and in combination with a panel of cytotoxic and non-cytotoxic SOC agents. The 60 cancer cell lines represent lines derived from breast cancer, prostate cancer, lung cancer, acute myeloid leukemia (AML), myeloma and other cancers. Cells were removed from liquid nitrogen storage, thawed and expanded in appropriate growth media. Once expanded, cells were seeded in 384-well tissue culture treated plates at 500 cells per well. […] At the end of either 0 hours or 144 hours, cell status was analyzed using ATPLite (Perkin Elmer) to assess the biological response of cells to drug combinations.” for “combinants.”
smiles,measurement,setting,value
"CNC(=O)c1ccnc2c([C@H](C)CNc3cc(-c4cnc(C)nc4)ncn3)cccc12 [Compound (1), (S)-N-methyl-8-(1-((2′-methyl-[4,5′-bipyrimidin]-6-yl)amino)propan-2-yl)quinoline-4-carboxamide]","Synergy or Antagonism, No Radiation",[1]; no agent ticked,Additivity
same,"Synergy or Antagonism, Plus Radiation (2 Gy)",[1]; no agent ticked,No effect
same,"Synergy or Antagonism, No Radiation",[1]; with Cisplatin,Additive
same,"Synergy or Antagonism, No Radiation",[1]; with Cisplatin and 5-FU,Additivity
same,"Synergy or Antagonism, Plus Radiation (2 Gy)",[1]; with Cisplatin and 5-FU,"Additivity, Plus"
same,"Synergy or Antagonism, No Radiation",[1]; with Etoposide,Synergy
same,"Synergy or Antagonism, No Radiation",[1]; with Paclitaxel,Additivity
same,"Synergy or Antagonism, No Radiation",[2],Synergy
same,"Synergy or Antagonism, Plus Radiation (2 Gy)",[2],Plus
same,"Synergy or Antagonism, No Radiation",[3]; no agent ticked,Synergy
same,"Synergy or Antagonism, Plus Radiation (2 Gy)",[3]; no agent ticked,Plus
same,"Synergy or Antagonism, No Radiation",[3]; with Cetuximab,Additivity
same,"Synergy or Antagonism, Plus Radiation (2 Gy)",[3]; with Cetuximab,"Additivity, Plus"
same,"Synergy or Antagonism, No Radiation",[4],Additivity
same,"Synergy or Antagonism, Plus Radiation (2 Gy)",[4],Plus
same,"Synergy or Antagonism, No Radiation",[5],synergistic; also recorded: Synergy
same,"Synergy or Antagonism, Plus Radiation (2 Gy)",[5],"Synergy, Plus"
same,"Synergy or Antagonism, No Radiation",[6],Strong Synergy
same,"Synergy or Antagonism, No Radiation",[7]; with 5-FU,Additivity
same,"Synergy or Antagonism, Plus Radiation (2 Gy)",[7]; with 5-FU,"Synergy*, Plus"
same,"Synergy or Antagonism, No Radiation",[7]; with Carboplatin,Antagonism
same,"Synergy or Antagonism, Plus Radiation (2 Gy)",[7]; with Carboplatin,"Synergy*, Plus"
same,"Synergy or Antagonism, No Radiation",[7]; with Cisplatin and Paclitaxel,Mix
same,"Synergy or Antagonism, Plus Radiation (2 Gy)",[7]; with Cisplatin and Paclitaxel,"Synergy, Plus"
"[2H]c1nc(C)nc([2H])c1-c1cc(NC[C@@H](C)c2cccc3c(C(=O)NC)ccnc23)ncn1 [Compound (2), (S)-N-methyl-8-(1-((2′-methyl-4′,6′-dideutero-[4,5′-bipyrimidin]-6-yl)amino)propan-2-yl)quinoline-4-carboxamide]",blood exposure,[8]; 25 mg/kg Compound (2) bid group,9300 ng·h/mL
same,blood exposure,[8]; 50 mg/kg Compound (2) bid group,27000 ng·h/mL
same,Average Bliss score,[9]; plating density 5000,14.5
same,Average Bliss score,[9]; plating density 20000,14.4
same,"Bliss analysis, combination effect",[10]; in combination with bleomycin,strong synergy (greater than 10 indicates strong synergy)
same,"Bliss analysis, combination effect",[10]; in combination with doxorubicin,strong synergy (greater than 10 indicates strong synergy)
same,"Bliss analysis, combination effect",[10]; in combination with etoposide,strong synergy (greater than 10 indicates strong synergy)

# Reference: patent US10039761B2, “Co-crystals and pharmaceutical compositions comprising the same” (Vertex Pharmaceuticals Incorporated, priority 2013, dated 2018)
